The source of these data is patent US20260198495A1, “BINARY INSECTICIDE COMPOSITION AND USE THEREOF” (SHENYANG SINOCHEM AGROCHEMICALS R & D CO., LTD., priority 2022, published 2026).

Common to all, as to assay type: in vivo
Data set [1] has as its system Bemisia tabaci (Gennadius) nymphs. Kind of data set: Joint toxicity of I-72 + bifenthrin, Example 40, Table 40. The following applies: in Gossypium hirsutum, 96 h. The protocol: (§1) Test target: Bemisia tabaci (Gennadius) nymphs, a sensitive strain reared indoors.
(§2) Preparation of the pesticide solution: according to different test requirements, the test samples were accurately weighed respectively with an electronic analytical balance. The technical pesticides were dissolved in acetone, and then diluted with 0.1% Tween 80 water into a series of pesticide solutions with a certain concentration gradient according to the experimental design dosage.
(§3) Experimental method: first, cotton leaves with neat and consistent Bemisia tabaci (Gennadius) nymphs were selected and made into leaf disks, with about 20 insects on each leaf disk. Then, they were evenly sprayed with the pesticide solution in the order from low dosage to high dosage according to the experimental design, with 1.5 mL for each leaf and 3 replicates for each treatment. In addition, a blank control was set up.
(§4) The treated test materials were placed in an observation room, and the temperature, humidity and illumination of the observation room could be adjusted as needed. The number of dead and live insects was investigated 96 hours later. […] Then, the co-toxicity coefficient of each ratio was calculated using the Sun Y-P method to evaluate the mixing effect (the same as in Example 1).

The test system of data set [2] is 2nd-instar larvae of Chilo suppressalis (Walker). The experiment in a line: Joint toxicity of I-72 + azadirachtin, Example 36, Table 36. The conditions noted are these: in Oryza sativa, 72 h. The text has this:
Test target: 2nd-instar larvae of Chilo suppressalis (Walker). The insect source was collected from Nanchang, Jiangxi Province, and it is the 11th generation continuously cultured indoors, with a relatively high resistance level to amide pesticides such as chlorantraniliprole.
Experimental method: the spraying method was adopted. Rice stalks with the same length and thickness were selected, cut into the same length, and evenly sprayed with the pesticide solution in the order from low dosage to high dosage according to the experimental design, with 1.5 mL of the pesticide solution for each treatment. The stalks were placed in a 6-cm-diameter Petri dish with filter paper. After natural air-drying in the shade, uniform and healthy test insects were introduced, with 10 insects for each treatment and 4 replicates for each treatment. In addition, a blank control was set up. The number of dead and live insects was investigated 72 hours later. The corrected mortality rate was calculated using the Abbott's formula, and the DPS data processing software was used for statistical analysis to calculate the toxicities (LC50 values) of the single test pesticides and the mixtures under the test ratios.
(§5) The test conditions, the preparation of the pesticide solution and the evaluation method were the same as those in Example 1.

Data set [3] relates to 2nd-instar larvae of Mythimna separata. The experiment in a line: Joint toxicity of I-72 + beta-cyfluthrin, Example 41, Table 41. The following applies: A = compound I-72, B = beta-cyfluthrin; corn leaf dipping; 72 hours. The protocol:
Test target: 2nd-instar larvae of Mythimna separata.
as §2
Experimental method: first, corn leaves were selected and dipped in the prepared pesticide solution for 10 s in the order from low dosage to high dosage according to the experimental design. After natural air-drying in the shade, they were placed in a 9-cm-diameter Petri dish with filter paper, and uniform and healthy test insects were introduced, with 10 insects for each treatment and 3 replicates for each treatment. In addition, a blank control was set up.
(§6) The treated test materials were placed in an observation room, and the temperature, humidity and illumination of the observation room could be adjusted as needed. The number of dead and live insects was investigated 72 hours later. […] Then, the co-toxicity coefficient of each ratio was calculated using the Sun Y-P method to evaluate the mixing effect (the same as in Example 1).

For data set [4], the system named is Pyrrhalta aenescens. Kind of data set: Joint toxicity of I-72 + fenobucarb, insect-dipping, Example 24, Table 24. The conditions noted are these: 24 h. The protocol:
Test target: Pyrrhalta aenescens, a strain reared indoors.
Experimental method: the insect-dipping method was adopted. Pyrrhalta aenescens of the same size were selected, put into an insect-dipping cage, and evenly […] the pesticide solution in the order from low dosage to high dosage according to the experimental design, with dipping for 10 s for each treatment. They were placed in a 9-cm-diameter Petri dish with filter paper. After natural air-drying in the shade, feed was added, with 3 replicates for each treatment. In addition, a blank control was set up.
The treated test materials were placed in an observation room. The total number of test insects and the number of dead insects were investigated 24 hours later. The temperature, humidity and illumination of the observation room could be adjusted as needed. The test conditions, the preparation of the pesticide solution and the evaluation method were the same as those in Example 1.

Data set [5] concerns adult Tetranychus cinnabarinus (Boisduval). The experiment in a line: Joint toxicity of I-72 + fenpropathrin, Example 39, Table 39. The following applies: 72 h. The procedure: (§7) Test target: adult Tetranychus cinnabarinus (Boisduval), a sensitive strain reared indoors.
as §2
(§8) Experimental method: the activity of the mixture against the adult Tetranychus cinnabarinus (Boisduval) was determined by adopting the potted-seedling spraying method. First, the adult Tetranychus cinnabarinus of uniform size were transferred onto the leaves of kidney bean seedlings at the stage when the first pair of true leaves was fully expanded. After the adult mites had stabilized, the base number was counted. Then, the uniform spraying was performed with the pesticide solution in the order from low to high dose according to the experimental design, with 1.5 mL for each seedling and 3 replicates for each treatment. […]
(§9) The treated test materials were placed in an observation room, and the temperature, humidity and illumination of the observation room could be adjusted as needed. […] Then, the co-toxicity coefficient of each ratio was calculated using the Sun Y-P method to evaluate the mixing effect, as in Example 1.

Data set [6] concerns second-instar larvae of Meloidogyne incognita. Kind of data set: In vitro joint toxicity of I-72 + fluopyram, 24-well plate, Example 32, Table 32. The following applies: 48 h. The procedure:
Test target: second-instar larvae of Meloidogyne incognita, a sensitive strain reared in a greenhouse.
as §2
Experimental method: the prepared pesticide solutions were added to a 24-well plate in the order from low dosage to high dosage according to the experimental design. In each well of each treatment, 50 nematodes were placed. Each drug had 5 concentrations set, with 3 replicates. After the treatment, the 24-well plate was placed in a constant temperature incubator at 25° C. In addition, a blank control group was set up. The number of dead and live insects was investigated 48 hours later. […] Then, the co-toxicity coefficient of each ratio was calculated using the Sun Y-P method to evaluate the mixing effect (the same as in Example 1).

The subject of data set [7] is mixed aphids of Myzus persicae (Sulzer). The experiment in a line: Joint toxicity of I-72 + matrine, Example 34, Table 34. The conditions noted are these: in Brassica oleracea, 48 h.
Source text: Test subject: mixed aphids of Myzus persicae (Sulzer), a sensitive strain reared indoors.
Experimental method: the spraying method on leaves with aphids was adopted. Cabbage leaves with a certain number of Myzus persicae (Sulzer) were taken. The prepared pesticide solutions were evenly sprayed on both the front and back sides of the leaves in the order from low concentration to high concentration according to the experimental design. Then, the leaves were placed in a 6-cm-diameter Petri dish with filter paper. After natural air-drying in the shade, they were placed in the observation room. The experiment had 3 replicates set, and in addition, a blank control was set up. The number of dead and live insects was investigated 48 hours later. The corrected mortality rate was calculated using the Abbott's formula, and the DPS data processing software was used for statistical analysis to calculate the toxicities (LC50 values) of the single test pesticides and the mixtures under the test ratios.
as §5

Data set [8] has as its system adult Phyllotreta striolata (Walker). The experiment in a line: Joint toxicity of I-72 + rotenone, insect dipping, Example 35, Table 35.
Source text: Test target: adult Phyllotreta striolata (Walker), a strain reared indoors.
Experimental method: the dipping method was adopted. Adult flea beetles of uniform size were put into an insect-dipping cage and dipped for 10 s in the order from low dosage to high dosage according to the experimental design, with 30 beetles for each treatment. The beetles were placed in a 9-cm-diameter Petri dish with filter paper, with 3 replicates for each treatment. In addition, a blank control was set up. The treated test materials were placed in an observation room, and the temperature, humidity and illumination of the observation room could be adjusted as needed.
as §5

Data set [9] concerns adult Tetranychus cinnabarinus (Boisduval). The experiment in a line: Joint toxicity of I-72 + spirodiclofen, potted-seedling spraying, Example 25, Table 25. The following applies: A = compound I-72, B = spirodiclofen, 72 hours. The protocol: as §7, §2, §8, §9
In data set [10] the test system is Bemisia tabaci (Gennadius) nymphs. Kind of data set: Joint toxicity of I-72 + spiromesifen, Example 27, Table 27. The conditions noted are these: A = compound I-72, B = spiromesifen; cotton leaf-disk spraying; 96 hours. The procedure:
as §1, §2, §3, §4

In data set [11] the test system is 2nd-instar larvae of Plutella xylostella. The experiment in a line: Joint toxicity of I-72 + spiropidion, Example 31, Table 31. The conditions noted are these: A = compound I-72, B = spiropidion; cabbage leaf dipping; 72 hours. The protocol: Test target: 2nd-instar larvae of Plutella xylostella.
as §2
Experimental method: first, cabbage leaves were selected and dipped in the prepared pesticide solution for 10 s in the order from low dosage to high dosage according to the experimental design. After natural air-drying in the shade, they were placed in a 9-cm-diameter Petri dish with filter paper, and uniform and healthy test insects were introduced, with 10 insects for each treatment and 3 replicates for each treatment. In addition, a blank control was set up.
as §6

For data set [12], the system named is Aphis gossypii Glover nymphs. Kind of data set: Joint toxicity of I-72 + spiropidion, Example 28, Table 28. The conditions noted are these: A = compound I-72, B = spiropidion; cotton leaf spraying; 48 hours. The procedure:
Test target: Aphis gossypii Glover nymphs, a sensitive strain reared indoors.
as §2
Experimental method: first, cotton leaves with uniform and consistent Aphis gossypii were selected, with about 30-40 insects on each leaf. Then, they were evenly sprayed with the pesticide solution in the order from low dosage to high dosage according to the experimental design, with 1.5 mL for each leaf and 3 replicates for each treatment. In addition, a blank control was set up.
(§10) The treated test materials were placed in an observation room, and the temperature, humidity and illumination of the observation room could be adjusted as needed. The number of dead and live insects was investigated 48 hours later. […] Then, the co-toxicity coefficient of each ratio was calculated using the Sun Y-P method to evaluate the mixing effect (the same as in Example 1).

The subject of data set [13] is adult Tetranychus urticae Koch. Kind of data set: Joint toxicity of I-72 + spirobudifen, Example 29, Table 29. The following applies: 72 h. The procedure: as §2
In addition, a blank control was set up.
The treated test materials were placed in an observation room, and the temperature, humidity and illumination of the observation room could be adjusted as needed.

Data set [14] deals with Thrips flavus Schrank nymphs. Kind of data set: Joint toxicity of I-72 + spirotetramat, Example 26, Table 26. The following applies: in Solanum melongena, 48 h. The procedure: Test target: Thrips flavus Schrank nymphs.
as §2
Experimental method: first, eggplant seedlings with Thrips flavus Schrank were selected, and the base number was counted. Then, uniform spraying was performed with the pesticide solution in the order from low to high doses according to the experimental design, with 2 mL for each seedling and 3 replicates for each treatment. In addition, a blank control was set up.
as §10

Data set [15] relates to Unaspis yanonensis Kuwana nymphs. The experiment in a line: whole plant or invertebrate. The conditions noted are these: foliar, 120 h. The protocol: Test target: Unaspis yanonensis Kuwana nymphs.
as §2
Experimental method: the activity of the mixture against Unaspis yanonensis Kuwana nymphs on citrus was determined by adopting the dipping method. First, the collected citrus leaves with Unaspis yanonensis Kuwana nymphs were treated with the pesticide solution in the order from low dosage to high dosage according to the experimental design. After air-drying, the petioles were kept moist with degreased cotton, and then the leaves were placed in a Petri dish, with 3 replicates for each treatment. In addition, a blank control was set up.
The treated test materials were placed in an observation room, and the temperature, humidity and illumination of the observation room could be adjusted as needed. The number of dead and live insects was investigated 120 hours later.

≈ marks a conversion by molar mass, not a printed value.

Usually LC50 stands for the concentration lethal to half of the exposed cells or organisms. For the molecule `Cc1c(COC(=O)[C@@H]2[C@H](/C=C(\Cl)C(F)(F)F)C2(C)C)cccc1-c1ccccc1` (racemic) [bifenthrin], in data set [1], the median lethal concentration (LC50) came to 62.4 µg/mL.

On to `C/C=C(\C)C(=O)O[C@H]1C[C@@H](OC(C)=O)[C@@]2(C(=O)OC)CO[C@H]3[C@@H](O)[C@@](C)([C@]45O[C@@]4(C)[C@H]4C[C@@H]5O[C@@H]5OC=C[C@@]54O)[C@H]4[C@]1(CO[C@]4(O)C(=O)OC)[C@@H]32` [azadirachtin], for which, in data set [2], the 50% lethal concentration (LC50) turned out to be 22.5 µg/mL.

In the case of `CC1(C)C(C=C(Cl)Cl)C1C(=O)OC(C#N)c1ccc(F)c(Oc2ccccc2)c1` (stereo not drawn) [beta-cyfluthrin], in [3], the LC50 amounted to 1.0438 µg/mL.

In the case of `CCC(C)c1ccccc1OC(=O)NC` (stereo not drawn) [fenobucarb], in data set [4], the 50% lethal concentration (LC50) stood at 37.2 µg/mL.

On to `CC1(C)C(C(=O)OC(C#N)c2cccc(Oc3ccccc3)c2)C1(C)C` (stereo not drawn) [fenpropathrin], for which the LC50 in data set [5] was 5.52 µg/mL.

Regarding `O=C(NCCc1ncc(C(F)(F)F)cc1Cl)c1ccccc1C(F)(F)F` [fluopyram], the LC50 in data set [6] worked out at 0.609 µg/mL.

Regarding `O=C1CCC[C@@H]2[C@H]3CCCN4CCC[C@@H](CN12)[C@@H]34` [matrine], the median lethal concentration (LC50) in data set [7] was 3.24 µg/mL.

With `C=C(C)[C@H]1Cc2c(ccc3c2O[C@@H]2COc4cc(OC)c(OC)cc4[C@@H]2C3=O)O1` [rotenone], the LC50 in [8] worked out at 19.5 µg/mL.

For the molecule `CCC(C)(C)C(=O)OC1=C(c2ccc(Cl)cc2Cl)C(=O)OC12CCCCC2` [spirodiclofen], the LC50 in data set [9] stood at 14.5033 µg/mL.

With `Cc1cc(C)c(C2=C(OC(=O)CC(C)(C)C)C3(CCCC3)OC2=O)c(C)c1` [spiromesifen], the LC50 in [10] came out at 10.6291 µg/mL.

`CCOC(=O)OC1=C(c2c(C)cc(Cl)cc2C)C(=O)N(C)C12CCN(OC)CC2` [spiropidion]: the figures for the median lethal concentration (LC50) in data set [11] and in data set [12] were 631.4873 µg/mL and 4.8686 µg/mL, respectively.

On to `CCOC(=O)OC1=C(c2cc(C)ccc2C)C(=O)N[C@]12CC[C@@H](OC)CC2` [spirotetramat], for which the LC50 turned out to be 8.2 µg/mL in [13], 12.3 µg/mL in data set [14] and 8.91 µg/mL (≈ 23.9 µM) in data set [15].
